Measured values: the NIST ThermoML archive (doi:10.1016/j.jct.2011.07.018)

Assay: excess molar enthalpy (molar enthalpy of mixing); xn = mol fraction of the nth substance listed
Settings: 298.15 K, 101 kPa, Liquid, isothermal titration calorimeter

CCCCCCC(C)=O [2-octanone] + CCCCCCCCO
Settings	excess molar enthalpy [kcal/mol]
x2 = 0.015	0.0217
x2 = 0.03	0.0425
x2 = 0.045	0.0619
x2 = 0.059	0.0793
x2 = 0.072	0.0961
x2 = 0.085	0.111
x2 = 0.098	0.126
x2 = 0.111	0.139
x2 = 0.124	0.152
x2 = 0.137	0.165
x2 = 0.15	0.177
x2 = 0.162	0.188
x2 = 0.174	0.197
x2 = 0.186	0.207
x2 = 0.197	0.215
x2 = 0.206	0.228
x2 = 0.212	0.233
x2 = 0.218	0.237
x2 = 0.225	0.241
x2 = 0.232	0.246
x2 = 0.24	0.251
x2 = 0.248	0.256
x2 = 0.256	0.261
x2 = 0.266	0.266
x2 = 0.276	0.272
x2 = 0.283	0.275
x2 = 0.291	0.279
x2 = 0.299	0.283
x2 = 0.308	0.286
x2 = 0.317	0.29
x2 = 0.327	0.294
x2 = 0.337	0.298
x2 = 0.348	0.301
x2 = 0.36	0.305
x2 = 0.373	0.308
x2 = 0.383	0.31
x2 = 0.393	0.313
x2 = 0.404	0.315
x2 = 0.415	0.316
x2 = 0.428	0.318
x2 = 0.44	0.32
x2 = 0.454	0.321
x2 = 0.469	0.322
x2 = 0.484	0.322
x2 = 0.496	0.321
x2 = 0.509	0.321
x2 = 0.523	0.32
x2 = 0.537	0.318
x2 = 0.552	0.316
x2 = 0.567	0.313
x2 = 0.587	0.31
x2 = 0.602	0.305
x2 = 0.62	0.3
x2 = 0.64	0.293
x2 = 0.657	0.288
x2 = 0.674	0.281
x2 = 0.692	0.273
x2 = 0.711	0.263
x2 = 0.731	0.252
x2 = 0.752	0.24
x2 = 0.775	0.226
x2 = 0.799	0.209
x2 = 0.82	0.194
x2 = 0.841	0.176
x2 = 0.864	0.156
x2 = 0.888	0.133
x2 = 0.914	0.107
x2 = 0.941	0.0762
x2 = 0.97	0.0411
